Measurements as given in the NIST ThermoML archive (doi:10.1016/j.tca.2018.07.026).
Several values for one entry are separate records, joined by “and”; a condition that tells them apart may be missing. Equal values may be shown once. ± gives the expanded uncertainty stated by the source.

How the values were obtained:
[1] = molar heat capacity at constant pressure; details: 101.33 kPa, Crystal, DSC
[2] = Molar enthalpy of transition or fusion; details: Crystal; DSC
[3] = for vapor or sublimation pressure: Liquid, Transpiration method

N#Cc1cccc2ccccc12 [1-cyanonaphthalene]
molar heat capacity at constant pressure ([1]; 268.9 K): 144.7 ± 30 J/K/mol and 156.8 ± 32 J/K/mol | molar heat capacity at constant pressure ([1]; 269.3 K): 148.8 ± 30 J/K/mol and 159.1 ± 32 J/K/mol | molar heat capacity at constant pressure ([1]; 269.7 K): 152.4 ± 31 J/K/mol and 161.1 ± 33 J/K/mol | molar heat capacity at constant pressure ([1]; 270.1 K): 155.6 ± 32 J/K/mol and 162.6 ± 33 J/K/mol | molar heat capacity at constant pressure ([1]; 270.5 K): 158.2 ± 32 J/K/mol and 164.1 ± 33 J/K/mol | molar heat capacity at constant pressure ([1]; 270.9 K): 160.6 ± 33 J/K/mol and 165.4 ± 34 J/K/mol | molar heat capacity at constant pressure ([1]; 271.3 K): 162.5 ± 33 J/K/mol and 166.5 ± 34 J/K/mol | molar heat capacity at constant pressure ([1]; 271.7 K): 164.3 ± 33 J/K/mol and 167.5 ± 34 J/K/mol | molar heat capacity at constant pressure ([1]; 272.1 K): 168.4 ± 34 J/K/mol and 165.9 ± 34 J/K/mol | molar heat capacity at constant pressure ([1]; 272.5 K): 169.2 ± 34 J/K/mol and 167.2 ± 34 J/K/mol | molar heat capacity at constant pressure ([1]; 272.9 K): 168.6 ± 34 J/K/mol and 170 ± 34 J/K/mol | molar heat capacity at constant pressure ([1]; 273.3 K): 169.6 ± 34 J/K/mol and 170.8 ± 35 J/K/mol | molar heat capacity at constant pressure ([1]; 273.6 K): 170.5 ± 35 J/K/mol and 171.4 ± 35 J/K/mol | molar heat capacity at constant pressure ([1]; 274 K): 171.5 ± 35 J/K/mol and 172.1 ± 35 J/K/mol | molar heat capacity at constant pressure ([1]; 274.4 K): 172.1 ± 35 J/K/mol and 172.7 ± 35 J/K/mol | molar heat capacity at constant pressure ([1]; 274.8 K): 172.9 ± 35 J/K/mol and 173.4 ± 35 J/K/mol | molar heat capacity at constant pressure ([1]; 275.2 K): 173.5 ± 35 J/K/mol and 173.9 ± 35 J/K/mol | molar heat capacity at constant pressure ([1]; 275.5 K): 174.2 ± 35 J/K/mol and 174.4 ± 35 J/K/mol | molar heat capacity at constant pressure ([1]; 275.9 K): 174.6 ± 36 J/K/mol and 174.9 ± 36 J/K/mol | molar heat capacity at constant pressure ([1]; 276.3 K): 175.1 ± 36 J/K/mol and 175.4 ± 36 J/K/mol | molar heat capacity at constant pressure ([1]; 276.7 K): 175.5 ± 36 J/K/mol and 175.6 ± 36 J/K/mol | molar heat capacity at constant pressure ([1]; 277 K): 175.9 ± 36 J/K/mol | molar heat capacity at constant pressure ([1]; 277.1 K): 175.7 ± 36 J/K/mol | molar heat capacity at constant pressure ([1]; 277.4 K): 176 ± 36 J/K/mol and 176.3 ± 36 J/K/mol | molar heat capacity at constant pressure ([1]; 277.8 K): 176.2 ± 36 J/K/mol and 176.6 ± 36 J/K/mol | molar heat capacity at constant pressure ([1]; 278.2 K): 177 ± 36 J/K/mol and 176.6 ± 36 J/K/mol | molar heat capacity at constant pressure ([1]; 278.5 K): 177.5 ± 36 J/K/mol and 177.1 ± 36 J/K/mol | molar heat capacity at constant pressure ([1]; 278.9 K): 177.9 ± 36 J/K/mol and 177.6 ± 36 J/K/mol | molar heat capacity at constant pressure ([1]; 279.3 K): 178.4 ± 36 J/K/mol and 178.1 ± 36 J/K/mol | molar heat capacity at constant pressure ([1]; 279.6 K): 179 ± 36 J/K/mol and 178.7 ± 36 J/K/mol | molar heat capacity at constant pressure ([1]; 280 K): 179.6 ± 36 J/K/mol and 179.5 ± 36 J/K/mol | molar heat capacity at constant pressure ([1]; 280.4 K): 180.4 ± 37 J/K/mol and 180.3 ± 37 J/K/mol | molar heat capacity at constant pressure ([1]; 280.7 K): 181.1 ± 37 J/K/mol | molar heat capacity at constant pressure ([1]; 280.8 K): 181.2 ± 37 J/K/mol | molar heat capacity at constant pressure ([1]; 281.1 K): 181.9 ± 37 J/K/mol and 182 ± 37 J/K/mol | molar heat capacity at constant pressure ([1]; 281.5 K): 182.8 ± 37 J/K/mol and 182.9 ± 37 J/K/mol | molar heat capacity at constant pressure ([1]; 281.8 K): 183.7 ± 37 J/K/mol | molar heat capacity at constant pressure ([1]; 281.9 K): 183.8 ± 37 J/K/mol | molar heat capacity at constant pressure ([1]; 282.2 K): 184.7 ± 38 J/K/mol and 184.8 ± 38 J/K/mol | molar heat capacity at constant pressure ([1]; 282.6 K): 185.7 ± 38 J/K/mol and 185.8 ± 38 J/K/mol | molar heat capacity at constant pressure ([1]; 282.9 K): 186.7 ± 38 J/K/mol and 186.6 ± 38 J/K/mol | molar heat capacity at constant pressure ([1]; 283.3 K): 187.9 ± 38 J/K/mol and 187.6 ± 38 J/K/mol | molar heat capacity at constant pressure ([1]; 283.7 K): 188.9 ± 38 J/K/mol and 188.4 ± 38 J/K/mol | molar heat capacity at constant pressure ([1]; 284 K): 190 ± 39 J/K/mol and 189 ± 38 J/K/mol | molar heat capacity at constant pressure ([1]; 284.4 K): 190.9 ± 39 J/K/mol and 189.8 ± 38 J/K/mol | molar heat capacity at constant pressure ([1]; 284.8 K): 191.7 ± 39 J/K/mol and 190.3 ± 39 J/K/mol | molar heat capacity at constant pressure ([1]; 285.1 K): 192.3 ± 39 J/K/mol and 190.7 ± 39 J/K/mol | molar heat capacity at constant pressure ([1]; 285.5 K): 192.8 ± 39 J/K/mol and 191 ± 39 J/K/mol | molar heat capacity at constant pressure ([1]; 285.9 K): 193.1 ± 39 J/K/mol and 191.4 ± 39 J/K/mol | molar heat capacity at constant pressure ([1]; 286.2 K): 193.2 ± 39 J/K/mol and 191.6 ± 39 J/K/mol | molar heat capacity at constant pressure ([1]; 286.6 K): 193.3 ± 39 J/K/mol and 191.7 ± 39 J/K/mol | molar heat capacity at constant pressure ([1]; 286.9 K): 193.2 ± 39 J/K/mol and 192 ± 39 J/K/mol | molar heat capacity at constant pressure ([1]; 287.3 K): 193.3 ± 39 J/K/mol and 192.4 ± 39 J/K/mol | molar heat capacity at constant pressure ([1]; 287.7 K): 193.2 ± 39 J/K/mol and 192.6 ± 39 J/K/mol | molar heat capacity at constant pressure ([1]; 288 K): 193 ± 39 J/K/mol | molar heat capacity at constant pressure ([1]; 288.4 K): 192.8 ± 39 J/K/mol and 193.1 ± 39 J/K/mol | molar heat capacity at constant pressure ([1]; 288.8 K): 192.4 ± 39 J/K/mol and 193.1 ± 39 J/K/mol | molar heat capacity at constant pressure ([1]; 289.1 K): 192.1 ± 39 J/K/mol and 193.1 ± 39 J/K/mol | molar heat capacity at constant pressure ([1]; 289.5 K): 191.7 ± 39 J/K/mol and 193.1 ± 39 J/K/mol | molar heat capacity at constant pressure ([1]; 289.8 K): 191.4 ± 39 J/K/mol and 193.1 ± 39 J/K/mol | molar heat capacity at constant pressure ([1]; 290.2 K): 191.3 ± 39 J/K/mol and 193 ± 39 J/K/mol | molar heat capacity at constant pressure ([1]; 290.6 K): 191.3 ± 39 J/K/mol and 192.9 ± 39 J/K/mol | molar heat capacity at constant pressure ([1]; 290.9 K): 191.6 ± 39 J/K/mol and 192.9 ± 39 J/K/mol | molar heat capacity at constant pressure ([1]; 291.3 K): 191.9 ± 39 J/K/mol and 192.9 ± 39 J/K/mol | molar heat capacity at constant pressure ([1]; 291.7 K): 192.2 ± 39 J/K/mol and 193.1 ± 39 J/K/mol | molar heat capacity at constant pressure ([1]; 292 K): 192.7 ± 39 J/K/mol and 193.5 ± 39 J/K/mol | molar heat capacity at constant pressure ([1]; 292.4 K): 193.3 ± 39 J/K/mol and 193.6 ± 39 J/K/mol | molar heat capacity at constant pressure ([1]; 292.8 K): 193.8 ± 39 J/K/mol and 194.2 ± 39 J/K/mol | molar heat capacity at constant pressure ([1]; 293.1 K): 194.5 ± 40 J/K/mol and 194.6 ± 40 J/K/mol | molar heat capacity at constant pressure ([1]; 293.5 K): 195.3 ± 40 J/K/mol and 195.4 ± 40 J/K/mol | molar heat capacity at constant pressure ([1]; 293.8 K): 196.1 ± 40 J/K/mol | molar heat capacity at constant pressure ([1]; 294.2 K): 196.8 ± 40 J/K/mol and 196.7 ± 40 J/K/mol | molar heat capacity at constant pressure ([1]; 294.6 K): 197.8 ± 40 J/K/mol and 197.4 ± 40 J/K/mol | molar heat capacity at constant pressure ([1]; 294.9 K): 198.7 ± 40 J/K/mol and 198.1 ± 40 J/K/mol | molar heat capacity at constant pressure ([1]; 295.3 K): 199.6 ± 40 J/K/mol and 198.9 ± 40 J/K/mol | molar heat capacity at constant pressure ([1]; 295.7 K): 200.6 ± 41 J/K/mol and 199.8 ± 41 J/K/mol | molar heat capacity at constant pressure ([1]; 296 K): 201.6 ± 41 J/K/mol and 200.6 ± 41 J/K/mol | molar heat capacity at constant pressure ([1]; 296.4 K): 202.5 ± 41 J/K/mol and 201.7 ± 41 J/K/mol | molar heat capacity at constant pressure ([1]; 296.8 K): 203.6 ± 41 J/K/mol and 202.9 ± 41 J/K/mol | Molar enthalpy of transition or fusion [2]: 17.4 ± 0.6 kJ/mol | vapor or sublimation pressure ([3]; 317.4 K): 0.00232 ± 0.00011 kPa | vapor or sublimation pressure ([3]; 321.3 K): 0.00324 ± 0.00015 kPa | vapor or sublimation pressure ([3]; 323.2 K): 0.00381 ± 0.00018 kPa | vapor or sublimation pressure ([3]; 326.3 K): 0.00461 ± 0.00021 kPa | vapor or sublimation pressure ([3]; 328.2 K): 0.00556 ± 0.00027 kPa | vapor or sublimation pressure ([3]; 331.2 K): 0.00702 ± 0.00033 kPa | vapor or sublimation pressure ([3]; 333.3 K): 0.00785 ± 0.00037 kPa | vapor or sublimation pressure ([3]; 335.2 K): 0.00943 ± 0.00045 kPa | vapor or sublimation pressure ([3]; 338.2 K): 0.0116 ± 0.0005 kPa | vapor or sublimation pressure ([3]; 340.2 K): 0.01358 ± 0.00064 kPa | vapor or sublimation pressure ([3]; 343.2 K): 0.01719 ± 0.00079 kPa | vapor or sublimation pressure ([3]; 345.1 K): 0.01921 ± 0.00089 kPa | vapor or sublimation pressure ([3]; 348.1 K): 0.02329 ± 0.0011 kPa | vapor or sublimation pressure ([3]; 351.1 K): 0.02893 ± 0.0013 kPa | vapor or sublimation pressure ([3]; 353.2 K): 0.03229 ± 0.0014 kPa | Normal melting temperature ([3]; Crystal, DTA): 34 ± 1.3 °C
